Laboratory results: patent US7572600B2, “Enzymatic activities in chemokine-mediated inflammation” (Chemocentryx, Inc., priority 2004, dated 2009)
pEC50: −log10 of the molar value. Where no end group is shown, it is not given here.

How the values were obtained:
leukocytes (neutrophils) = experiment: Leukocyte recruitment to skin after intradermal injection; format: in vivo; conditions: 2 μg intradermally, c57Bl/6 and BALB/c mice, 6 hours
Description: Immunohistochemistry. BALB/c and c57Bl/6 mice were injected intradermally with 50 μl sterile saline with or without 2 μg SHAAGtide. 6 hours later, mice were euthanized and the skin surrounding the injection site was excised. After immersion in 10% neutral-buffered formalin for 18-24 hours, the skin biopsy was processed in graded alcohols and embedded in paraffin wax. 5 μm-wide sections were cut on a Leica microtome, transferred to glass slides, deparaffinized in xylenes, and hydrated through graded alcohols. The sections were either stained with hematoxylin and eosin (Sigma, St. Louis Mo.) or stained immunohistochemically for neutrophils as follows. The slides were immersed in Target Retrieval solution (Dako, Carpinteria Calif.) for 20 minutes at 90° C., rinsed with water and immersed in tris-buffered saline (TBS) containing 2% bovine serum albumin for 20 minutes. The sections were then exposed to rat anti-mouse neutrophil monoclonal antibody (Accurate Chemical and Scientific, Westbury N.Y.) or rat IgG2a isotype control antibody (BD Pharmingen, San Diego Calif.) for 1 hour, rinsed with TBS, and exposed to biotinylated goat anti-rat Ig (Dako) for 30 minutes. The sections were then rinsed with TBS, stained with the ABC-AP and fuchsin reagents (both from Dako), rinsed with water, and counterstained with hematoxylin for 2 minutes. […]

FPRL1 = target: T1, FPRL1 (Homo sapiens, UniProt P25090); experiment: Functional assays on FPRL1 (receptor signaling and chemotaxis); format: cell-based; set-up: endogenous in cells; host or cells: human CD14+ monocytes from buffy coats
T1 sequence (P25090 1-351): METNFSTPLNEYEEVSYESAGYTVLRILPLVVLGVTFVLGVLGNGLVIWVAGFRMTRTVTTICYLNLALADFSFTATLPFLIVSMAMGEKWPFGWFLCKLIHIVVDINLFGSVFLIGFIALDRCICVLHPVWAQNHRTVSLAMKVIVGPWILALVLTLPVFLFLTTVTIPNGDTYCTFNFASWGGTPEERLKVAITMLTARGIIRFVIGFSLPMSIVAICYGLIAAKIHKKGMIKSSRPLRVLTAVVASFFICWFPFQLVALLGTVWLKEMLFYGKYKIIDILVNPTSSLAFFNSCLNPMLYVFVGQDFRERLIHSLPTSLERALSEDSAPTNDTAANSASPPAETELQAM
Description: Receptor signaling assay. For individual measurements, cells were loaded for 45 min at room temperature with 2 μM indo-1/AM (Invitrogen, Carlsbad Calif.) in culture medium, then washed with 10 ml PBS and resuspended at 10^6 cells/ml in HBSS containing 0.1% BSA. Cytosolic calcium levels were determined using a Photon Technology International fluorimeter (excitation at 350 nm, ratio of dual emission at 400 and 490 nm). For measuring calcium dose responses, cells were analyzed with a Fluorometric Imaging Plate Reader 384 (FLIPR^384) (Molecular Devices, Sunnyvale, Calif.). Cells were loaded for 1 hr at 37° C. with 5 μM fluo-4 in HBSS with 0.1% BSA, then washed, transferred to black-wall 96-well plates, and subsequently excited at 505 nm with emission recorded at 530 nm with a standard protocol provided by the manufacture. Cells were stimulated with agonists 20 s after the monitoring of fluorescence began. Data were analyzed and plotted in arbitrary units of fluorescence using Prism. To ensure that responses were specific to FPRL1, we utilized a selective small-molecule antagonist of human FPRL1, generated by ChemoCentryx, which was optimized from a high throughput compound library screening approach.
Chemotaxis assays. L1.2-CCR1 and L1.2-FPRL1 transfectants, monocytes and neutrophils were collected by centrifugation and resuspended in HBSS with 0.1% BSA. The assays were performed in 96-well ChemoTx® microplates (Neuroprobe, Rockville, Md.). Chemokines were diluted in HBSS with 0.1% BSA and added to the lower wells (final volume 29 μL), then 20 μL of cell suspension (5×10^6 cells/mL for monocytes; 2.5×10^6 cells/mL for neutrophils) were added to the polycarbonate filters (5 μm pore size for monocytes and FPRL1 transfectants; 3 μm pore size for neutrophils). After incubation for 90 min (37° C., 100% humidity, 5% CO2), the filters were removed and the cells that migrated into the lower chamber were quantified by using the CyQuant cell proliferation assay kit (Molecular Probes, Oreg.).

MLWRRKIGPQMTLSHAAG [SHAAGtide]
mice with recruitment of leukocytes (primarily neutrophils) into the subcutis region of the dermis (leukocytes (neutrophils)): 6 of 6 | fold more potent than all other natural agents posited to act on FPRL1 (FPRL1): 50 to 100 fold | pEC50 (FPRL1; isolated peptide): 7.52 to 8.00 | potency and efficacy versus other purported natural FPRL1 ligands (SAA, beta-amyloid protein 42, lipoxin A4, fMLP) (FPRL1; receptor signaling and chemotaxis assays): more potent and efficacious
